Measurements as given in ChEMBL document CHEMBL5352447, “Development of [1,2]oxazoloisoindoles tubulin polymerization inhibitors: Further chemical modifications and potential therapeutic effects against lymphomas” (Eur J Med Chem, 2022).

Legend:
CCRF-CEM = assay: Antiproliferative activity against human CCRF-CEM cells assessed as cell growth inhibition incubated for 72 hrs by MTT assay; type: functional
HL-60(TB) = assay: Antiproliferative activity against human HL-60(TB) cells assessed as cell growth inhibition incubated for 72 hrs by MTT assay; type: functional
MOLT-4 = assay: Antiproliferative activity against human MOLT-4 cells assessed as cell growth inhibition incubated for 72 hrs by MTT assay; type: functional
RPMI-8226 = assay: Antiproliferative activity against human RPMI-8226 cells assessed as cell growth inhibition incubated for 72 hrs by MTT assay; type: functional
SR = assay: Antiproliferative activity against human SR cells assessed as cell growth inhibition incubated for 72 hrs by MTT assay; type: functional
A549 = assay: Antiproliferative activity against human A549 cells assessed as cell growth inhibition incubated for 72 hrs by MTT assay; type: functional
EKVX = assay: Antiproliferative activity against human EKVX cells assessed as cell growth inhibition incubated for 72 hrs by MTT assay; type: functional
NCI-H226 = assay: Antiproliferative activity against human NCI-H226 cells assessed as cell growth inhibition incubated for 72 hrs by MTT assay; type: functional
NCI-H23 = assay: Antiproliferative activity against human NCI-H23 cells assessed as cell growth inhibition incubated for 72 hrs by MTT assay; type: functional
NCI-H322M = assay: Antiproliferative activity against human NCI-H322M cells assessed as cell growth inhibition incubated for 72 hrs by MTT assay; type: functional
NCI-H522 = assay: Antiproliferative activity against human NCI-H522 cells assessed as cell growth inhibition incubated for 72 hrs by MTT assay; type: functional
HCT-116 = assay: Antiproliferative activity against human HCT-116 cells assessed as cell growth inhibition incubated for 72 hrs by MTT assay; type: functional
HT-29 = assay: Antiproliferative activity against human HT-29 cells assessed as cell growth inhibition incubated for 72 hrs by MTT assay; type: functional
KM12 = assay: Antiproliferative activity against human KM12 cells assessed as cell growth inhibition incubated for 72 hrs by MTT assay; type: functional
SW-620 = assay: Antiproliferative activity against human SW620 cells assessed as cell growth inhibition incubated for 72 hrs by MTT assay; type: functional
SF-268 = assay: Antiproliferative activity against human SF-268 cells assessed as cell growth inhibition incubated for 72 hrs by MTT assay; type: functional
SF-539 = assay: Antiproliferative activity against human SF-539 cells assessed as cell growth inhibition incubated for 72 hrs by MTT assay; type: functional
SNB-19 = assay: Antiproliferative activity against human SNB-19 cells assessed as cell growth inhibition incubated for 72 hrs by MTT assay; type: functional
SNB-75 = assay: Antiproliferative activity against human SNB-75 cells assessed as cell growth inhibition incubated for 72 hrs by MTT assay; type: functional
U-251 = assay: Antiproliferative activity against human U-251 cells assessed as cell growth inhibition incubated for 72 hrs by MTT assay; type: functional
M14 = assay: Antiproliferative activity against human M14 cells assessed as cell growth inhibition incubated for 72 hrs by MTT assay; type: functional
MDA-MB-435 = assay: Antiproliferative activity against human MDA-MB-435 cells assessed as cell growth inhibition incubated for 72 hrs by MTT assay; type: functional
SK-MEL-2 = assay: Antiproliferative activity against human SK-MEL-2 cells assessed as cell growth inhibition incubated for 72 hrs by MTT assay; type: functional
SK-MEL-28 = assay: Antiproliferative activity against human SK-MEL-28 cells assessed as cell growth inhibition incubated for 72 hrs by MTT assay; type: functional
UACC-257 = assay: Antiproliferative activity against human UACC-257 cells assessed as cell growth inhibition incubated for 72 hrs by MTT assay; type: functional
UACC-62 = assay: Antiproliferative activity against human UACC-62 cells assessed as cell growth inhibition incubated for 72 hrs by MTT assay; type: functional
IGROV-1 = assay: Antiproliferative activity against human IGROV-1 cells assessed as cell growth inhibition incubated for 72 hrs by MTT assay; type: functional
OVCAR-5 = assay: Antiproliferative activity against human OVCAR-5 cells assessed as cell growth inhibition incubated for 72 hrs by MTT assay; type: functional
786-0 = assay: Antiproliferative activity against human 786-0 cells assessed as cell growth inhibition incubated for 72 hrs by MTT assay; type: functional
A498 = assay: Antiproliferative activity against human A498 cells assessed as cell growth inhibition incubated for 72 hrs by MTT assay; type: functional
RXF 393 = assay: Antiproliferative activity against human RXF 393 cells assessed as cell growth inhibition incubated for 72 hrs by MTT assay; type: functional
SN12C = assay: Antiproliferative activity against human SN12C cells assessed as cell growth inhibition incubated for 72 hrs by MTT assay; type: functional
TK-10 = assay: Antiproliferative activity against human TK-10 cells assessed as cell growth inhibition incubated for 72 hrs by MTT assay; type: functional
UO-31 = assay: Antiproliferative activity against human UO-31 cells assessed as cell growth inhibition incubated for 72 hrs by MTT assay; type: functional
DU-145 = assay: Antiproliferative activity against human DU-145 cells assessed as cell growth inhibition incubated for 72 hrs by MTT assay; type: functional
MCF7 = assay: Antiproliferative activity against human MCF7 cells assessed as cell growth inhibition incubated for 72 hrs by MTT assay; type: functional
MDA-MB-231 = assay: Antiproliferative activity against human MDA-MB-231 cells assessed as cell growth inhibition incubated for 72 hrs by MTT assay; type: functional
Hs-578T = assay: Antiproliferative activity against human Hs-578T cells assessed as cell growth inhibition incubated for 72 hrs by MTT assay; type: functional
BT-549 = assay: Antiproliferative activity against human BT-549 cells assessed as cell growth inhibition incubated for 72 hrs by MTT assay; type: functional
T47D = assay: Antiproliferative activity against human T47D cells assessed as cell growth inhibition incubated for 72 hrs by MTT assay; type: functional
MDA-MB-468 = assay: Antiproliferative activity against human MDA-MB-468 cells assessed as cell growth inhibition incubated for 72 hrs by MTT assay; type: functional
VL51 [1] = assay: Antiproliferative activity against human VL51 cells assessed as proliferating cells at 1 uM incubated for 72 hrs by MTT assay relative to control; type: functional
[2] = Antiproliferative activity against human MINO cells assessed as proliferating cells at 1 uM incubated for 72 hrs by MTT assay relative to control; type: functional
SU-DHL10 [3] = assay: Antiproliferative activity against human SU-DHL-10 cells assessed as proliferating cells at 1 uM incubated for 72 hrs by MTT assay relative to control; type: functional
VL51 [4] = assay: Antiproliferative activity against human VL51 cells assessed as inhibition of cell proliferation incubated for 72 hrs by MTT assay; type: functional, cell-based; conditions: VL51, 72 h
[5] = Antiproliferative activity against human MINO cells assessed as inhibition of cell proliferation incubated for 72 hrs by MTT assay; type: functional, cell-based
SU-DHL10 [6] = assay: Antiproliferative activity against human SU-DHL-10 cells assessed as inhibition of cell proliferation incubated for 72 hrs by MTT assay; type: functional, cell-based; conditions: SU-DHL10, 72 h

**Q.** Which results are given for `CCOC(=O)c1noc2c1CCc1c-2cn(Cc2ccc(OC)cc2)c1-c1cc(OC)c(OC)c(OC)c1`?
**A.** GI50 (CCRF-CEM): 1040 nM; GI50 (HL-60(TB)): 450 nM; GI50 (MOLT-4): 2700 nM; GI50 (RPMI-8226): 2850 nM; GI50 (SR): 2090 nM; GI50 (A549): 3800 nM; GI50 (EKVX): 3920 nM; GI50 (NCI-H226): > 100000 nM; GI50 (NCI-H23): 3040 nM; GI50 (NCI-H322M): 5460 nM; GI50 (NCI-H522): 370 nM; GI50 (HCT-116): 400 nM; GI50 (HT-29): 850 nM; GI50 (KM12): 910 nM; GI50 (SW-620): 500 nM; GI50 (SF-268): 8070 nM; GI50 (SF-539): 1840 nM; GI50 (SNB-19): 670 nM; GI50 (SNB-75): 3650 nM; GI50 (U-251): 540 nM; GI50 (M14): 410 nM; GI50 (MDA-MB-435): 570 nM; GI50 (SK-MEL-2): 4290 nM; GI50 (SK-MEL-28): 1900 nM; GI50 (UACC-257): 85800 nM; GI50 (UACC-62): 2740 nM; GI50 (IGROV-1): 2450 nM; GI50 (OVCAR-5): 4720 nM; GI50 (786-0): 3650 nM; GI50 (A498): 2770 nM; GI50 (RXF 393): 2170 nM; GI50 (SN12C): 3920 nM; GI50 (TK-10): > 100000 nM; GI50 (UO-31): 3440 nM; GI50 (DU-145): 2320 nM; GI50 (MCF7): 350 nM; GI50 (MDA-MB-231): 2700 nM; GI50 (Hs-578T): 2990 nM; GI50 (BT-549): 1470 nM; GI50 (T47D): > 100000 nM; GI50 (MDA-MB-468): 5620 nM; Activity (VL51 [1]): 79.7%; Activity [2]: 41.3%; Activity (SU-DHL10 [3]): 59%; IC50 (VL51 [4]): 1800 nM; IC50 [5]: 1400 nM; IC50 (SU-DHL10 [6]): 2000 nM

**Q.** Which GI50 (CCRF-CEM) does the source give for `COc1ccc(Cn2cc3c(c2-c2cc(OC)c(OC)c(OC)c2)CCc2c(CN4CCOCC4)noc2-3)cc1` here?
**A.** 1260 nM

**Q.** And the GI50 (HL-60(TB))?
**A.** 390 nM

**Q.** And the GI50 (MOLT-4)?
**A.** 3060 nM

**Q.** And the GI50 (RPMI-8226)?
**A.** 770 nM

**Q.** And the GI50 (SR)?
**A.** 380 nM

**Q.** What about the GI50 (A549) of the same compound?
**A.** 1130 nM

**Q.** And the GI50 (EKVX)?
**A.** 1400 nM

**Q.** What about the GI50 (NCI-H226) of the same compound?
**A.** 890 nM

**Q.** What about the GI50 (NCI-H23) of the same compound?
**A.** 2170 nM

**Q.** What about the GI50 (NCI-H522) of the same compound?
**A.** 300 nM

**Q.** And the GI50 (HCT-116)?
**A.** 500 nM

**Q.** What about the GI50 (HT-29) of the same compound?
**A.** 640 nM

**Q.** What about the GI50 (KM12) of the same compound?
**A.** 400 nM

**Q.** And the GI50 (SW-620)?
**A.** 430 nM

**Q.** What about the GI50 (SF-268) of the same compound?
**A.** 780 nM

**Q.** What about the GI50 (SF-539) of the same compound?
**A.** 440 nM

**Q.** And the GI50 (SNB-19)?
**A.** 860 nM

**Q.** And the GI50 (SNB-75)?
**A.** 310 nM

**Q.** What about the GI50 (U-251) of the same compound?
**A.** 880 nM

**Q.** And the GI50 (M14)?
**A.** 560 nM

**Q.** What about the GI50 (MDA-MB-435) of the same compound?
**A.** 250 nM

**Q.** What about the GI50 (SK-MEL-2) of the same compound?
**A.** 550 nM

**Q.** What about the GI50 (SK-MEL-28) of the same compound?
**A.** > 100000 nM

**Q.** What about the GI50 (UACC-257) of the same compound?
**A.** 1000 nM

**Q.** And the GI50 (UACC-62)?
**A.** 610 nM

**Q.** And the GI50 (IGROV-1)?
**A.** 810 nM

**Q.** What about the GI50 (786-0) of the same compound?
**A.** 770 nM

**Q.** What about the GI50 (A498) of the same compound?
**A.** 320 nM

**Q.** And the GI50 (RXF 393)?
**A.** 290 nM

**Q.** What about the GI50 (SN12C) of the same compound?
**A.** 3810 nM

**Q.** What about the GI50 (TK-10) of the same compound?
**A.** > 100000 nM

**Q.** What about the GI50 (UO-31) of the same compound?
**A.** 760 nM

**Q.** What about the GI50 (DU-145) of the same compound?
**A.** 1990 nM

**Q.** And the GI50 (MCF7)?
**A.** 360 nM

**Q.** What about the GI50 (MDA-MB-231) of the same compound?
**A.** 2250 nM

**Q.** What about the GI50 (Hs-578T) of the same compound?
**A.** 500 nM

**Q.** And the GI50 (BT-549)?
**A.** 1340 nM

**Q.** And the GI50 (T47D)?
**A.** > 100000 nM

**Q.** And the GI50 (MDA-MB-468)?
**A.** 340 nM

**Q.** What about the Activity (VL51 [1]) of the same compound?
**A.** 53.3%

**Q.** What about the Activity [2] of the same compound?
**A.** 5.3%

**Q.** What about the Activity (SU-DHL10 [3]) of the same compound?
**A.** 0.7%

**Q.** And the IC50 (VL51 [4])?
**A.** 200 nM

**Q.** What about the IC50 [5] of the same compound?
**A.** 500 nM

**Q.** And the IC50 (SU-DHL10 [6])?
**A.** 500 nM
